Assay results published in article PMC10997755, “Discovery of a small-molecule inhibitor that traps Polθ on DNA and synergizes with PARP inhibitors” (Nature Communications, 2024).

Assays:
Polγ = target: T1, Polγ (Homo sapiens, UniProt P54098); test: Primer extension by recombinant Pols (selectivity); type: biochemical
T1 construct: gift: Dr. Copeland (NIEHS)
T1 sequence (P54098 1-1239): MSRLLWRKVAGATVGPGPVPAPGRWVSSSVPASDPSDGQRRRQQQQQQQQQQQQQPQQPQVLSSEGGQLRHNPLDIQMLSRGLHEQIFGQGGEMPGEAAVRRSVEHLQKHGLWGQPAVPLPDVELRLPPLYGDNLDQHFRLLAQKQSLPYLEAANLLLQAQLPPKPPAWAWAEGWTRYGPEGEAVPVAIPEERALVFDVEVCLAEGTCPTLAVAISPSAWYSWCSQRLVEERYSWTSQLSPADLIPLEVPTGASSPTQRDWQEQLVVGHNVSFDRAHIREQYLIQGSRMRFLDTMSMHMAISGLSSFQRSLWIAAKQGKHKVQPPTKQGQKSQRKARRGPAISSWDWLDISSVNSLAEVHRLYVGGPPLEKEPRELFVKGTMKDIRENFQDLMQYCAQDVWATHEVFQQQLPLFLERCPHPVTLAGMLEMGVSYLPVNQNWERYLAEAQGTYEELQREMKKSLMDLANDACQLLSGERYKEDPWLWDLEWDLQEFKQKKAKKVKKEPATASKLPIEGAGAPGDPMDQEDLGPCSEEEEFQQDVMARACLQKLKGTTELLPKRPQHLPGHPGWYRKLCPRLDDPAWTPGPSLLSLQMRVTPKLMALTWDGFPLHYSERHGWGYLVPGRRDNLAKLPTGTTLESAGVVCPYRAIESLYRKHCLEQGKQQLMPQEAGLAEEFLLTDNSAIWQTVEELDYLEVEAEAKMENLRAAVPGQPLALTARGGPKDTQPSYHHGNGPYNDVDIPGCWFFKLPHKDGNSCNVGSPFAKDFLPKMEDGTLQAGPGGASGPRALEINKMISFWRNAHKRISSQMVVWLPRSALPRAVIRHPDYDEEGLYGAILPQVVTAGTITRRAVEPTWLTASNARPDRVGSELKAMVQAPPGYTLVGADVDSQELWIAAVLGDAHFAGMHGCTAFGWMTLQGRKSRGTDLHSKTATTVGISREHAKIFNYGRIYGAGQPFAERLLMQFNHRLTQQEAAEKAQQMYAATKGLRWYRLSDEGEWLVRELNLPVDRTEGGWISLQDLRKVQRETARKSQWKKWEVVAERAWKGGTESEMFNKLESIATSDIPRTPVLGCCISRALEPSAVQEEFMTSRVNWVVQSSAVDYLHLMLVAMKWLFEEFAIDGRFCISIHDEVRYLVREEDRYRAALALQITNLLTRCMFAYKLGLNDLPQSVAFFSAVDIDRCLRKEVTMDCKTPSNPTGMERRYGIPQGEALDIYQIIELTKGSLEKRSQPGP

DLD1 BRCA2 -/- cells = test: Apoptosis assay (FITC active caspase-3); type: cell-based; parameters: FITC+ AVG / FITC- AVG: unit not given here; details: for % population FITC Caspase-3 Negative / % population FITC Caspase-3 Positive: bar matched by sums to 100; for FITC+ AVG / FITC- AVG: DLD1 BRCA2 null
Method: DLD1 BRCA2 -/-, DLD1 Parental cells were plated on six well plates and treated with RTX-161 1 day after plating. Medium was replaced every 2 days with RTX-161. Cells were harvested 6 days after plating for apoptosis assay using FITC active caspase-3 apoptosis kit (BD biosciences, catalog # 550480) according to manufacturer’s instructions and analyzed by FACS with Celesta (Becton Dickinson).

CN(C(=O)Oc1c(N2CCN(CCO)C2=O)cc(C(F)(F)F)cc1C(F)(F)F)c1ccc(F)cc1 [RTx-161]
% Full Extension (Polγ; Pol Gamma): 81.33% | % Inhibition Compared to Control (Polγ; Pol Gamma): 1.34% | % Relative Maximum Extension (Polγ; Pol Gamma): 98.66% | inhibition of primer extension (Polγ; selectivity panel): no inhibition | % population FITC Caspase-3 Negative (DLD1 BRCA2 -/- cells; 10 uM RTX-161): 92% | % population FITC Caspase-3 Positive (DLD1 BRCA2 -/- cells; 10 uM RTX-161): 8% | % population FITC Caspase-3 Negative (DLD1 BRCA2 -/- cells; 20 uM RTX-161): 90% | % population FITC Caspase-3 Positive (DLD1 BRCA2 -/- cells; 20 uM RTX-161): 10% | FITC+ AVG (DLD1 BRCA2 -/- cells; 10 uM, left block of sheet): 8.433 | FITC- AVG (DLD1 BRCA2 -/- cells; 10 uM, left block of sheet): 91.5667 | FITC+ AVG (DLD1 BRCA2 -/- cells; 10 uM, middle block of sheet): 12.1 | FITC- AVG (DLD1 BRCA2 -/- cells; 10 uM, middle block of sheet): 87.9 | FITC+ AVG (DLD1 BRCA2 -/- cells; 10 uM, right block of sheet): 12.3333 | FITC- AVG (DLD1 BRCA2 -/- cells; 10 uM, right block of sheet): 87.6667 | FITC+ AVG (DLD1 BRCA2 -/- cells; 20 uM, left block of sheet): 9.633 | FITC- AVG (DLD1 BRCA2 -/- cells; 20 uM, left block of sheet): 90.3667 | FITC+ AVG (DLD1 BRCA2 -/- cells; 20 uM, middle block of sheet): 13.8333 | FITC- AVG (DLD1 BRCA2 -/- cells; 20 uM, middle block of sheet): 86.1667 | FITC+ AVG (DLD1 BRCA2 -/- cells; 20 uM, right block of sheet): 13.3333 | FITC- AVG (DLD1 BRCA2 -/- cells; 20 uM, right block of sheet): 86.6667 | apoptosis (DLD1 BRCA2 -/- cells; versus parental): selectively induced PARP cleavage and apoptosis
